Where two headings read alike, the source gives them in different places.
Experiments:
[1] = system: E. multilocularis GL cells; experiment: Germinal layer cell viability assay (CellTiter-Glo); type: cell-based, Echinococcus multilocularis
Method: The isolation of GL cells was conducted according to ([Kaethner et al., 2023]). Briefly, conditioned DMEM (cDMEM) was prepared prior to isolation. For the preparation of cDMEM, 1 × 10^6 RH cells and 10 × 10^6 RH cells incubated in DMEM supplemented with 10 % FBS, penicillin (100 U/mL), streptomycin (100 μg/mL) and tetracycline (5 μg/mL) for six or four days, respectively, at 37 °C under a humid, 5 % CO2 atmosphere. The supernatant of each was mixed 1:1 and sterile filtrated, resulting in cDMEM. Metacestode vesicles of at least 6 months of age were washed with PBS, incubated in distilled H2O for 2.5 min and subsequently mechanically disrupted. The resulting pellet was resuspended in 7 vol of pre-warmed 0.05 % Trypsin/0.02 % EDTA and incubated at 37 °C for 30 min. GL cells were extracted from the laminated layer by vigorous shaking followed by filtration through a 30 μm mesh (Sefar AG, Heiden, Switzerland) and separated from calcareous corpuscles by short centrifugation at 50×g for 30 s at RT. The isolated cells were centrifuged for 10 min at 600×g and RT and the pellet was resuspended in cDMEM. The cell suspension was diluted 1:100 in PBS to measure the OD600. An OD600 value of 0.1 of this dilution was defined as one arbitrary unit (AU) per μL of the undiluted cell suspension corresponding to 0.97 ± 0.11 μg of total protein for the GL cells as measured via Pierce™ bicinchoninic acid (BCA) Protein Assay Kit according to the manufacturer's protocol (Fisher Scientific AG, Reinach, Switzerland). 1′000 AU per 5 mL of cDMEM were cultured at 37 °C overnight under a humid nitrogen atmosphere. The next day, 2′000 AU of GL cells were combined and further cultured for 3 h at 37 °C under a humid nitrogen atmosphere before they were used for further experiments.
To assess effects of compounds on the cell viability of isolated E. multilocularis GL cells, the protocol was applied as previously described ([Kaethner et al., 2023]). In short, 15 AU of GL cells were distributed into each well of a black 384-well plate. Compounds dissolved in DMSO (alexidine, carbendazim, ESI-09, MMV1581545 and oxfendazole) were added to final concentrations ranging from 80 to 0.31 μM (1:2 serial dilution) and the cells were cultured for 5 days at 37 °C under a humid, microaerobic atmosphere (85 % N2, 10 % CO2, 5 % O2). DMSO with the respective concentration was used as a solvent control. Viability was measured using the CellTiter-Glo® kit. Luminescence was measured using a HIDEX Sense microplate reader. Measurements were done in quadruplicates and represented as relative viability of the DMSO controls. IC50 values were calculated in R applying the five parameter logistic model for three independent experiments ([Ritler et al., 2020]).

[2] = system: cancer cell lines; set-up: method as in Maeda et al., 2020; conditions: ref Maeda et al., 2020; cited from earlier work
[3] = system: mice; set-up: method as in Almahariq et al., 2013; Maeda et al., 2020; conditions: ref Almahariq et al., 2013, Maeda et al., 2020, cited from earlier work
[4] = system: E. multilocularis GL cells; experiment: Seahorse mito cell stress test, oxygen consumption rate; type: cell-based, Echinococcus multilocularis; conditions: titration in GL cells
Method: To measure mitochondrial respiration in E. multilocularis GL cells, Seahorse “mito cell stress test” was performed according to the manual for Seahorse XFp Extracellular Flux Analyzer (Agilent Technologies, Basel, Switzerland) with some adaptations ([Gu et al., 2021]; [Rufener et al., 2018]). Seahorse XFp 8-well plates were hydrated and incubated together with Seahorse XF calibrant solution at 37 °C in a non-CO2 incubator overnight the day before the actual experiment. […] Oligomycin was used at a final concentration of 1.5 μM. […] The experiment was repeated three times independently with two technical replicates.

[5] = system: E. multilocularis metacestode vesicles; experiment: Phosphoglucose isomerase (PGI) release assay (damage-marker release) on metacestode vesicles; type: cell-based, Echinococcus multilocularis; conditions: for PGI d5 (relative PGI release) / PGI d12 (relative PGI release): 10 μM; for PGI d5 (relative PGI release): 5 days; for PGI d12 (relative PGI release): 12 days
[6] = system: E. multilocularis metacestode vesicles; experiment: Metacestode vesicle viability assay (ATP, CellTiter-Glo); type: cell-based, Echinococcus multilocularis; conditions: Echinococcus multilocularis, 288 h; for viability at 10 µM: 12 days, read-out: Viability d12 (relative viability)
Method: Viability was assessed after 12 days using the same metacestode vesicles as for the PGI release assay. Triton X-100 was added to each well to a final concentration of 0.1 %. Subsequently the metacestode vesicles were broken mechanically and 50 μL of the supernatant was mixed with 50 μL of CellTiter-Glo® buffer (Promega, Dübendorf, Switzerland). Measurements were performed on a HIDEX Sense microplate reader.

[7] = system: E. multilocularis metacestode vesicles; experiment: Transmission electron microscopy of treated metacestode vesicles; type: cell-based, Echinococcus multilocularis; conditions: 1 μM, 24 h
Method: To investigate induction of ultrastructural changes in E. multilocularis metacestode vesicles treated with ESI-09, transmission electron microscopy (TEM) was performed. Metacestode vesicles were treated with either 1 μM ESI-09 or the solvent control DMSO with subsequent incubation for 24 h at 37 °C under a humid, 5 % CO2 atmosphere. Processing and imaging was done as previously described ([Kaethner et al., 2023]).

[8] = confirmation screen, triplicates, mean
[9] = overview screen, singlets, relative to 0.1 % Triton X-100, DMSO subtracted

CC(C)(C)c1cc(C(=O)/C(C#N)=N/Nc2cccc(Cl)c2)no1 [ESI-09]
effect on GL cell viability (in words) ([1]; 80 to 0.31 μM, 5 days): highly effective
IC50 ([1]; Echinococcus multilocularis, 120 h, 5 days incubation, microaerobic, mean ± SD of three independent experiments): 2.45 ± 0.86 µM
optimal uncoupling concentration in cancer cell lines [2]: 2 µM
tolerability in mice (in words) ([3]; daily 10 mg/kg intraperitoneal for 21 days): well-tolerated
tolerability in mice (in words) ([3]; daily 50 mg/kg oral gavage up to 26 days): well-tolerated
optimal (maximal) uncoupling concentration [4]: 2 µM
IC50 ([5]; Echinococcus multilocularis, 288 h, 12 days incubation, mean ± SD of three independent experiments): 6.06 ± 3.18 µM
PGI d5 (relative PGI release) [5, 8]: 6.08%
PGI d12 (relative PGI release) [5, 8]: 38.44%
detachment of the GL from the laminated layer, visible from concentration ([5]; microscopy pictures, 12 days incubation): ≥ 13.3 µM
PGI d5 (relative PGI release) [5, 9]: 33.0513%
PGI d12 (relative PGI release) [5, 9]: 64.0941%
viability at 10 µM [6, 8]: 10.7%
viability at 10 µM ([6]; overview screen, singlets, relative to DMSO control): 7.77%
IC50 ([6]; 12 days incubation, mean ± SD of three independent experiments): 2.09 ± 0.56 µM
ultrastructural changes in metacestode vesicles (in words) [7]: induced distinct ultrastructural changes
ultrastructural changes in mitochondria (in words) [7]: no ultrastructural changes in mitochondria were seen

Source: publication PMC12410356 (International Journal for Parasitology: Drugs and Drug …, 2025)
